In one assay the test system is Plasmodium falciparum. In words: Antiplasmodial activity against chloroquine-resistant ring stage Plasmodium falciparum Dd2 after 72 hrs by SYBR Green 1-based fluorescence assay. Type of assay: functional, organism-based. The note with it: Dd2, 72 h.
The test system of a further assay is A2780. In words: Cytotoxicity against human A2780 cells. Type of assay: cell-based.

IC50 data for 28 compounds are collected here from ChEMBL document CHEMBL3102724, “Isolation of antiplasmodial anthraquinones from Kniphofia ensifolia, and synthesis and structure-activity relationships of related compounds” (Bioorg Med Chem, 2014).

The term IC50 denotes the concentration at which inhibition is half-maximal. A higher IC50 goes with lower potency. In the assay with Plasmodium falciparum, `O=C(CCc1ccccc1)OCc1cc(O)c2c(c1)C(=O)c1cccc(O)c1C2=O` came in with an IC50 of 36 µM.
`COc1ccc(OC)c(/C=C/C(=O)OCc2cc(O)c3c(c2)C(=O)c2cccc(O)c2C3=O)c1` came in with an IC50 in the assay on Plasmodium falciparum of 9 µM.
With `C[C@@H]1CC[C@H]2[C@@H](C)C(=O)O[C@@H]3O[C@@]4(C)CC[C@@H]1[C@]32OO4` [ARTEMISININ], in the assay with Plasmodium falciparum, the IC50 was determined as 0.007 µM.
Still for that read-out and setting: with `COc1cc(/C=C/C(=O)OCc2cc(O)c3c(c2)C(=O)c2cccc(O)c2C3=O)cc(OC)c1` the figure was 2.5 µM; with `CC(=O)Oc1ccc(C(=O)OCc2cc(O)c3c(c2)C(=O)c2cccc(O)c2C3=O)cc1`, 30 µM.
Same read-out and setting: with `COc1ccc(/C=C/C(=O)OCc2cc(O)c3c(c2)C(=O)c2cccc(O)c2C3=O)cc1` the figure was 5 µM; with `COc1cccc(/C=C/C(=O)OCc2cc(O)c3c(c2)C(=O)c2cccc(O)c2C3=O)c1OC`, 8 µM; with `CC(=O)OCc1cc(O)c2c(c1)C(=O)c1cccc(O)c1C2=O`, 42 µM.
For `COc1ccc(C(=O)OCc2cc(O)c3c(c2)C(=O)c2cccc(O)c2C3=O)cc1OC`, 14 µM corresponded to half-maximal inhibition with Plasmodium falciparum (IC50).
`O=C(/C=C/c1ccc(O)cc1)OCc1cc(O)c2c(c1)C(=O)c1cccc(O)c1C2=O`: the IC50 is greater than 60 µM in the assay on A2780 and 9 µM with Plasmodium falciparum.
In the same order, the values of `Cc1cc(O)cc2c1C(=O)c1cc(-c3c(C)cc4c(c3O)C(=O)c3c(O)cccc3C4=O)cc(O)c1C2=O` are greater than 60 µM and 10 µM.
Consider `Cc1cc(O)c2c(c1)C(=O)c1ccc(-c3c(C)cc(O)c4c3C(=O)c3cccc(O)c3C4=O)c(O)c1C2=O`, for which the IC50 in the assay with A2780 is greater than 60 µM; in the assay on Plasmodium falciparum, 10 µM.
For `O=C(OCc1cc(O)c2c(c1)C(=O)c1cccc(O)c1C2=O)c1ccc(O)cc1`, in that order: greater than 60 µM and 26 µM.
For the compound `COc1cc(O)c(-c2c(C)cc(O)c3c2C(=O)c2cccc(O)c2C3=O)c(O)c1C(C)=O` [KNIPHOLONE], the values for the IC50 with A2780 and in the assay with Plasmodium falciparum were 8 µM and 1.1 µM, respectively.
`COc1ccc(/C=C/C(=O)OCc2cc(O)c3c(c2)C(=O)c2cccc(O)c2C3=O)cc1OC` registered an IC50 in the assay with Plasmodium falciparum of 1.3 µM.
As for `O=C1c2cccc(O)c2C(=O)c2c(O)cc(CO)cc21` [ALOE-EMODIN], the figures for the IC50 in the assay with A2780 and with Plasmodium falciparum were 26 µM and 55 µM, respectively.
On to `O=C(/C=C/c1ccc2c(c1)OCO2)OCc1cc(O)c2c(c1)C(=O)c1cccc(O)c1C2=O`, for which, in the assay with Plasmodium falciparum, it took 1.9 µM to reach half-maximal inhibition (IC50).
In the assay on Plasmodium falciparum, `COc1ccc(/C=C/C(=O)OCc2cc(O)c3c(c2)C(=O)c2cccc(O)c2C3=O)c(OC)c1` came in with an IC50 of 6 µM.
Same read-out and setting: with `O=C(OCc1cc(O)c2c(c1)C(=O)c1cccc(O)c1C2=O)c1ccccc1` the figure was 31 µM.
Still for that read-out and setting: with `COc1ccc(C(=O)OCc2cc(O)c3c(c2)C(=O)c2cccc(O)c2C3=O)cc1` the figure was 22 µM; with `C/C=C/C(=O)OCc1cc(O)c2c(c1)C(=O)c1cccc(O)c1C2=O`, 45 µM.
On to `Cc1cc(O)c2c(c1)C(=O)c1cccc(O)c1C2=O` [CHRYSOPHANOL], for which the IC50 with A2780 is greater than 60 µM; in the assay on Plasmodium falciparum it was 58 µM.
In the assay with Plasmodium falciparum, `O=C(/C=C/c1ccccc1)OCc1cc(O)c2c(c1)C(=O)c1cccc(O)c1C2=O` came in with a 50% inhibitory concentration (IC50) of 18 µM.
For `Cc1cc(O)c2c(c1)C(=O)c1ccc(C3(O)c4cccc(O)c4C(=O)c4c(O)cc(C)cc43)c(O)c1C2=O` (configuration not stated), the results for the IC50 in the assay on A2780 and with Plasmodium falciparum were 6 µM and 0.4 µM, respectively.
In the same order, the values of `Cc1cc(O)c2c(c1)C(O)(c1ccc3c(c1O)C(=O)c1c(O)cc(C)c(O)c1C3=O)c1cccc(O)c1C2=O` (configuration not stated) are 4 µM and 0.2 µM.
`CC(=O)Oc1ccc(/C=C/C(=O)OCc2cc(O)c3c(c2)C(=O)c2cccc(O)c2C3=O)cc1`: the 50% inhibitory concentration (IC50) in the assay with Plasmodium falciparum was found to be 12 µM.
In the assay with Plasmodium falciparum, `COc1cc(C(=O)OCc2cc(O)c3c(c2)C(=O)c2cccc(O)c2C3=O)cc(OC)c1OC` showed a 50% inhibitory concentration (IC50) of 16 µM.
On the same count and under the same terms, next, `COc1cc(/C=C/C(=O)OCc2cc(O)c3c(c2)C(=O)c2cccc(O)c2C3=O)cc(OC)c1OC`: 2.7 µM.
